The record followed here is patent US20050165074A1, “Amide derivatives as C-KIT modulators” (Ambit Biosciences Corporation, priority 2003, published 2005).

For one experiment, the target named is KIT (DKIN) (Homo sapiens, UniProt P10721). As to the kind of experiment: Binding constant (Kd) measurement, phage-displayed kinase competition binding assay, KIT (DKIN). To be noted: c-Kit, DKIN construct. An excerpt: (§1) The term “ND” represents non-determined values.
Another experiment has as its target KIT (JMminus) (Homo sapiens, UniProt P10721). As to the kind of experiment: Binding constant (Kd) measurement, phage-displayed kinase competition binding assay, KIT (JMminus). To be noted: c-Kit, JMminus construct.
Excerpt: as §1

Sequence of KIT (JMminus) (P10721 589-937 limits assumed): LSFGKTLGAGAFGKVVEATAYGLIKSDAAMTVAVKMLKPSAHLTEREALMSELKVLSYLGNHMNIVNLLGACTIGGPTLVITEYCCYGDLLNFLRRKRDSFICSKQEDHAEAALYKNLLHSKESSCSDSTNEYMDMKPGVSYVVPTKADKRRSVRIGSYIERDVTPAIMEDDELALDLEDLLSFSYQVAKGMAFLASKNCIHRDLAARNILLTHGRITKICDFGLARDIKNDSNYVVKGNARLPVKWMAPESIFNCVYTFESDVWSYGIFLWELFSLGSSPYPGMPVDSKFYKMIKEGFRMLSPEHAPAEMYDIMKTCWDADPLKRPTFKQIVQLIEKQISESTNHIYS
Sequence of KIT (DKIN) (P10721 589-937 limits assumed): as above

The Kd is the concentration at which binding is half-saturated. For `COc1ccc(CC(=O)Nc2cc(C(C)(C)C)no2)cc1`, the Kd at KIT (DKIN) lay in the range of 100 to 1000 nM.

For `CC(C)(C)c1cc(NC(=O)Cc2ccc(OCc3ccccc3)cc2)on1`, the Kd on KIT (DKIN) was 100 to 1000 nM.

As to `COc1cccc2cc([C@H](C)C(=O)Nc3cc(C(C)(C)C)on3)ccc12`, the Kd on KIT (DKIN) was in the range of 1000 to 10000 nM.

Compound `CC(C)(C)c1cc(NC(=O)Cc2ccc(F)cc2)on1` displayed a Kd on KIT (DKIN) of 1000 to 10000 nM.

On KIT (DKIN), `CC(C)(C)c1cc(NC(=O)Cc2ccc(Cl)cc2)on1` displayed a Kd of 1000 to 10000 nM.

The compound `CC(C)(C)c1cc(NC(=O)Cc2ccc(Br)cc2)on1` gave a Kd on KIT (DKIN) of 100 to 1000 nM.

In the case of `Cc1nn(C)c(Cl)c1C(=O)Nc1ccc(CC(=O)Nc2cc(C(C)(C)C)on2)cc1`, the Kd at KIT (JMminus) was below 100 nM.

The compound `CSc1ncc(Br)c(C(=O)Nc2ccc(CC(=O)Nc3cc(C(C)(C)C)on3)cc2)n1` showed a Kd at KIT (JMminus) below 100 nM.

Compound `CC(C)(C)c1cc(NC(=O)Cc2ccc(NC(=O)c3ccc4cnccc4n3)cc2)no1` showed a Kd at KIT (JMminus) below 100 nM.

The compound `Cn1cc(C(=O)Nc2ccc(CC(=O)Nc3cc(C(C)(C)C)on3)cc2)c2ccccc21` displayed a Kd on KIT (JMminus) below 100 nM.

As for `CC(C)(C)c1cc(NC(=O)Cc2ccc(NC(=O)c3cccc4cccnc34)cc2)no1`, the Kd on KIT (JMminus) lay within 100 to 1000 nM.

The compound `CC(C)(C)c1cc(NC(=O)Cc2ccc(NC(=O)c3cnc4ccccc4c3)cc2)no1` showed a Kd at KIT (JMminus) below 100 nM.
